Measured values as given in the supplement of paper PMC4862054.

System: CAL-148
Experiment: drug sensitivity score (DSS), CellTiter-Blue viability (DSS (AUC-based score)); higher = stronger viability inhibition; extreme values may be limits of the assay
Conditions: incubation time: 72 h
Description: (§1)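 DSRT with the CellTiter-Blue (resazurin reduction) viability readout, fluorescence 560/590 nm, 72 h incubation. Plates were normalised to DMSO and benzethonium chloride controls. DSS is computed from the area under the fitted dose-response curve (5 or 9 concentrations).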

SMILES | drug sensitivity score
CCc1cncnc1N1CCN(Cc2nc3ccc(C(F)(F)F)cc3[nH]2)CC1 | 0
Oc1ncc(N(CCCl)CCCl)c(O)n1 [Uracil mustard] | 0
COc1cc2nccc(Oc3ccc(NC(=O)Nc4cc(C)on4)c(Cl)c3)c2cc1OC [Tivozanib] | 0
O=C(Cc1ccc(-c2ccc(OCCN3CCOCC3)cc2)cn1)NCc1ccccc1 [KX2-391] | 22.6
CC1=C(/C=C/C(C)=C/C=C/C(C)=C/C(=O)O)C(C)(C)CCC1 [Tretinoin] | 4.65
Nc1ccccc1NC(=O)c1ccc(CNC(=O)OCc2cccnc2)cc1 [Entinostat] | 5.16
C=CC(=O)Nc1cc2c(Nc3ccc(F)c(Cl)c3)ncnc2cc1OCCCN1CCOCC1 [Canertinib] | 7.47
CCCCC(=O)OCC(=O)[C@]1(O)Cc2c(O)c3c(c(O)c2[C@@H](O[C@H]2C[C@H](NC(=O)C(F)(F)F)[C@H](O)[C@H](C)O2)C1)C(=O)c1c(OC)cccc1C3=O [Valrubicin] | 21.1

System: CAL-85-1
Experiment: as above
Conditions: incubation time: 72 h
Description: as §1

SMILES | drug sensitivity score
CCc1cncnc1N1CCN(Cc2nc3ccc(C(F)(F)F)cc3[nH]2)CC1 | 0
Oc1ncc(N(CCCl)CCCl)c(O)n1 [Uracil mustard] | 0
COc1cc2nccc(Oc3ccc(NC(=O)Nc4cc(C)on4)c(Cl)c3)c2cc1OC [Tivozanib] | 0
O=C(Cc1ccc(-c2ccc(OCCN3CCOCC3)cc2)cn1)NCc1ccccc1 [KX2-391] | 19.6
CC1=C(/C=C/C(C)=C/C=C/C(C)=C/C(=O)O)C(C)(C)CCC1 [Tretinoin] | 0
Nc1ccccc1NC(=O)c1ccc(CNC(=O)OCc2cccnc2)cc1 [Entinostat] | 5.41
C=CC(=O)Nc1cc2c(Nc3ccc(F)c(Cl)c3)ncnc2cc1OCCCN1CCOCC1 [Canertinib] | 11.9
CCCCC(=O)OCC(=O)[C@]1(O)Cc2c(O)c3c(c(O)c2[C@@H](O[C@H]2C[C@H](NC(=O)C(F)(F)F)[C@H](O)[C@H](C)O2)C1)C(=O)c1c(OC)cccc1C3=O [Valrubicin] | 7.92

System: HCC1937
Experiment: as above
Conditions: incubation time: 72 h
Description: as §1

SMILES | drug sensitivity score
CCc1cncnc1N1CCN(Cc2nc3ccc(C(F)(F)F)cc3[nH]2)CC1 | 0
Oc1ncc(N(CCCl)CCCl)c(O)n1 [Uracil mustard] | 3.7
COc1cc2nccc(Oc3ccc(NC(=O)Nc4cc(C)on4)c(Cl)c3)c2cc1OC [Tivozanib] | 0
O=C(Cc1ccc(-c2ccc(OCCN3CCOCC3)cc2)cn1)NCc1ccccc1 [KX2-391] | 24.2
CC1=C(/C=C/C(C)=C/C=C/C(C)=C/C(=O)O)C(C)(C)CCC1 [Tretinoin] | 0
Nc1ccccc1NC(=O)c1ccc(CNC(=O)OCc2cccnc2)cc1 [Entinostat] | 4.61
C=CC(=O)Nc1cc2c(Nc3ccc(F)c(Cl)c3)ncnc2cc1OCCCN1CCOCC1 [Canertinib] | 7.24
CCCCC(=O)OCC(=O)[C@]1(O)Cc2c(O)c3c(c(O)c2[C@@H](O[C@H]2C[C@H](NC(=O)C(F)(F)F)[C@H](O)[C@H](C)O2)C1)C(=O)c1c(OC)cccc1C3=O [Valrubicin] | 16

System: SK-BR-3
Experiment: as above
Conditions: incubation time: 72 h
Description: as §1

SMILES | drug sensitivity score
CCc1cncnc1N1CCN(Cc2nc3ccc(C(F)(F)F)cc3[nH]2)CC1 | 0
Oc1ncc(N(CCCl)CCCl)c(O)n1 [Uracil mustard] | 0
COc1cc2nccc(Oc3ccc(NC(=O)Nc4cc(C)on4)c(Cl)c3)c2cc1OC [Tivozanib] | 1.12
O=C(Cc1ccc(-c2ccc(OCCN3CCOCC3)cc2)cn1)NCc1ccccc1 [KX2-391] | 25
CC1=C(/C=C/C(C)=C/C=C/C(C)=C/C(=O)O)C(C)(C)CCC1 [Tretinoin] | 7.44
Nc1ccccc1NC(=O)c1ccc(CNC(=O)OCc2cccnc2)cc1 [Entinostat] | 12.4
C=CC(=O)Nc1cc2c(Nc3ccc(F)c(Cl)c3)ncnc2cc1OCCCN1CCOCC1 [Canertinib] | 27.4
CCCCC(=O)OCC(=O)[C@]1(O)Cc2c(O)c3c(c(O)c2[C@@H](O[C@H]2C[C@H](NC(=O)C(F)(F)F)[C@H](O)[C@H](C)O2)C1)C(=O)c1c(OC)cccc1C3=O [Valrubicin] | 18.6

System: MDA-MB-453
Experiment: as above
Conditions: incubation time: 72 h
Description: as §1

SMILES | drug sensitivity score
CCc1cncnc1N1CCN(Cc2nc3ccc(C(F)(F)F)cc3[nH]2)CC1 | 0
Oc1ncc(N(CCCl)CCCl)c(O)n1 [Uracil mustard] | 0
COc1cc2nccc(Oc3ccc(NC(=O)Nc4cc(C)on4)c(Cl)c3)c2cc1OC [Tivozanib] | 5.3
O=C(Cc1ccc(-c2ccc(OCCN3CCOCC3)cc2)cn1)NCc1ccccc1 [KX2-391] | 21.5
CC1=C(/C=C/C(C)=C/C=C/C(C)=C/C(=O)O)C(C)(C)CCC1 [Tretinoin] | 0
Nc1ccccc1NC(=O)c1ccc(CNC(=O)OCc2cccnc2)cc1 [Entinostat] | 5.77
C=CC(=O)Nc1cc2c(Nc3ccc(F)c(Cl)c3)ncnc2cc1OCCCN1CCOCC1 [Canertinib] | 15.9
CCCCC(=O)OCC(=O)[C@]1(O)Cc2c(O)c3c(c(O)c2[C@@H](O[C@H]2C[C@H](NC(=O)C(F)(F)F)[C@H](O)[C@H](C)O2)C1)C(=O)c1c(OC)cccc1C3=O [Valrubicin] | 11

System: Hs578T
Experiment: as above
Conditions: incubation time: 72 h
Description: as §1

SMILES | drug sensitivity score
CCc1cncnc1N1CCN(Cc2nc3ccc(C(F)(F)F)cc3[nH]2)CC1 | 0
Oc1ncc(N(CCCl)CCCl)c(O)n1 [Uracil mustard] | 0
COc1cc2nccc(Oc3ccc(NC(=O)Nc4cc(C)on4)c(Cl)c3)c2cc1OC [Tivozanib] | 2.98
O=C(Cc1ccc(-c2ccc(OCCN3CCOCC3)cc2)cn1)NCc1ccccc1 [KX2-391] | 25.9
CC1=C(/C=C/C(C)=C/C=C/C(C)=C/C(=O)O)C(C)(C)CCC1 [Tretinoin] | 0
Nc1ccccc1NC(=O)c1ccc(CNC(=O)OCc2cccnc2)cc1 [Entinostat] | 2.77
C=CC(=O)Nc1cc2c(Nc3ccc(F)c(Cl)c3)ncnc2cc1OCCCN1CCOCC1 [Canertinib] | 4.83
CCCCC(=O)OCC(=O)[C@]1(O)Cc2c(O)c3c(c(O)c2[C@@H](O[C@H]2C[C@H](NC(=O)C(F)(F)F)[C@H](O)[C@H](C)O2)C1)C(=O)c1c(OC)cccc1C3=O [Valrubicin] | 10.3

System: HDQ-P1
Experiment: as above
Conditions: incubation time: 72 h
Description: as §1

SMILES | drug sensitivity score
CCc1cncnc1N1CCN(Cc2nc3ccc(C(F)(F)F)cc3[nH]2)CC1 | 0
Oc1ncc(N(CCCl)CCCl)c(O)n1 [Uracil mustard] | 0
COc1cc2nccc(Oc3ccc(NC(=O)Nc4cc(C)on4)c(Cl)c3)c2cc1OC [Tivozanib] | 5.92
O=C(Cc1ccc(-c2ccc(OCCN3CCOCC3)cc2)cn1)NCc1ccccc1 [KX2-391] | 16
